Data set [1] in a line: In vitro intrinsic clearance in microsomes, human. Conditions: Assay 3, human female microsomes, 0.5 uM compound, 0.5 mg/mL protein, 37° C.; for microsomal CLint at 0.5 uM: pH 7.4. In kind it is in vitro ADME. As to the method:
(§1) Determination of In vitro Intrinsic Clearance in Microsomes
(§2) NADP regeneration buffer for use in incubations was prepared fresh on the assay day. It contained 7.8 mg glucose-6-phosphate (mono-sodium salt), 1.7 mg NADP and 6 Units glucose-6-phosphate dehydrogenase per 1 mL of 2% sodium bicarbonate. Microsomes (human, female; cynomolgus monkey, female; dog, female; rat, female) were prepared in pH7.4 phosphate buffer and contained 0.625 mg protein/mL. Unless stated, all subsequent steps were performed by a Tecan Genesis 150/8 RSP. A 1.25 mM stock solution of the compounds was prepared in Acetonitrile/water (1:1). 25 ul of the 1.25 mM stock solution was added to 600 ul of Acetonitrile/water (1:1) to give a 50 uM solution. For each species, the 50 uM solutions (10 uL) were added to microsomes (790 uL) in a microplate (Porvair, 96 deepwell, square). 400 uL of the microsomal solution containing the compound was transferred to a microplate (Porvair, 96 deepwell, round) and was pre-warmed at 37° C. for five minutes prior to initiation of incubations. All incubations were initiated by addition of 100 uL of
(§3) NADP regeneration system to the pre-warmed microsomes. The mixtures were incubated at 37° C. in a Techne heating block. Following 0, 3, 6, 12 and 30 minutes incubation, 20 uL aliquots were taken and added to 100 uL of acetonitrile containing internal standard.
(§4) For determination of the rate of metabolism, incubations were performed at a compound concentration of 0.5 uM and a protein concentration of 0.5 mg/mL. The concentration of solvent in the incubation was 0.5%.
(§5) Test compound concentrations were determined by LC/MS/MS; results were reported as analyte:internal standard peak area ratios.
(§6) The rate of disappearance was calculated by fitting a single exponential decay to the concentration-time curve using Excel and intrinsic clearance was calculated using the following formula: […]

In data set [2] the target is T1, human recombinant oxytocin receptors (Homo sapiens, UniProt P30559).
T1 construct: expressed in transfected cells; host or cells: membranes of CHO cells
T1 sequence (P30559 1-389): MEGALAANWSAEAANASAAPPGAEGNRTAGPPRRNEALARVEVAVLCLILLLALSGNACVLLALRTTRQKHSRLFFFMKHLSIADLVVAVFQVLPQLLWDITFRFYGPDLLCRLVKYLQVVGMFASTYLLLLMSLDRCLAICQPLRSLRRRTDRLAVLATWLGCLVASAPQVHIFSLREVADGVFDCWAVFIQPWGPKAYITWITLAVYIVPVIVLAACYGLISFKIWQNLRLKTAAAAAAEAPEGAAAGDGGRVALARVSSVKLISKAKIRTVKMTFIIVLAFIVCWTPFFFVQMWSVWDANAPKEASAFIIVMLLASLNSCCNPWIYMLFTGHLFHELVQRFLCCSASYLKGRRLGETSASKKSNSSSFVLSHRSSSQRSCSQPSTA
Nature of the data set: Oxytocin binding assay ([3H]-oxytocin, CHO cell membranes). Conditions: Assay 2, Ki from IC50 by Cheng and Prusoff. As to the method:
Membranes were prepared from CHO cells expressing human recombinant oxytocin receptors. The membrane preparation was frozen in aliquots at −70° C. until used.
Membranes (˜50 ug) were incubated in 200 ul of assay buffer (50 mM Tris, 10 mM MgCl2, and 0.1% bovine serum albumin, pH 7.5) containing ˜2.4 nM of [3H]-oxytocin in the absence (total binding) or presence (non-specific binding) of 1 uM unlabeled oxytocin and increasing concentrations of the compounds in Examples 1 to 6 or comparator compounds. Incubations were performed at room temperature for 60 minutes. The reactions were stopped with 3 ml of ice cold buffer and filtered through Whatman GF/C filter paper presoaked in 0.3% polyethylenimine. The filters were washed 4 times with 3 ml buffer using a Brandel cell harvester. The filters were counted in 3 ml Ready Safe scintillation fluid (Beckman).
Specific binding represented approximately 90% of total binding.
IC50 values were determined from competition binding experiments using non-linear regression analysis (GraphPad) and converted to Ki using the method of Cheng and Prusoff, 1974. Data are reported as mean values.

The nature of data set [3]: In vitro intrinsic clearance in microsomes, rat. In kind it is in vitro ADME. The settings on record: Assay 3, rat female microsomes, 0.5 uM compound, 0.5 mg/mL protein, 37° C.; for microsomal CLint at 0.5 uM: pH 7.4. How it is done:
as §1, §2, §3, §4, §5, §6

The target in data set [4] is T2, recombinant human Oxytocin-1 (hOT) receptor (Homo sapiens, UniProt P30559).
T2 construct: expressed in transfected cells
T2 sequence (P30559 1-389): T1 sequence (P30559 1-389)
The experiment in a line: Antagonist affinity at human Oxytocin-1 receptors using FLIPR ([Ca2+]i). The class given is cell-based. The settings on record: Assay 1, CHO-hOT cells, oxytocin at EC80, read-out: fpKi. As to the method:
Determination of Antagonist Affinity at Human Oxytocin-1 Receptors using FLIPR
Adherent Chinese Hamster Ovary (CHO) cells, stably expressing the recombinant human Oxytocin-1 (hOT) receptor, were maintained in culture in DMEM:F12 medium (Sigma, cat no D6421), supplemented with 10% heat inactivated foetal calf serum
(Gibco/Invitrogen, cat. no. 01000-147), 2 mM L-glutamine (Gibco/Invitrogen, cat. no. 25030-024) and 0.2 mg/ml G418 (Gibco/Invitrogen, cat no. 10131-027). Cells were grown as monolayers under 95%:5% air:CO2 at 37° C. and passaged every 3-4 days using TrypLE™ Express (Gibco/Invitrogen, cat no. 12604-013).
Measurement of [Ca^2+]i using the FLIPR™
CHO-hOT cells were seeded into black walled clear-base 384-well plates (Nunc) at a density of 10,000 cells per well in culture medium as described above and maintained overnight (95%:5% air:CO2 at 37° C.). […] Cells were then incubated for an additional 30 min at 37° C. with either buffer alone or buffer containing OT antagonist, before being placed into a FLIPR™ (Molecular Devices, UK) to monitor cell fluorescence (λex=488 nm, λEM=540 nm) before and after the addition of a submaximal concentration of oxytocin (EC80).
Functional responses using FLIPR were analysed using Activity Base Version 5.0.10.

Data set [5] is described as follows: In vitro intrinsic clearance in microsomes, dog. The class given is in vitro ADME. Conditions: Assay 3, dog female microsomes, 0.5 uM compound, 0.5 mg/mL protein, 37° C.; for microsomal CLint at 0.5 uM: pH 7.4. How it is done:
as §1, §2, §3, §4, §5, §6

Data set [6] can be described thus: In vitro intrinsic clearance in microsomes, cynomolgus monkey. In kind it is in vitro ADME. The settings on record: Assay 3, cynomolgus monkey female microsomes, 0.5 uM compound, 0.5 mg/mL protein, 37° C.; for microsomal CLint at 0.5 uM: pH 7.4. As to the method:
as §1, §2, §3, §4, §5, §6

With `Cc1ccc([C@H](C(=O)N(C)C)N2C(=O)[C@@H](C3Cc4ccccc4C3)NC(=O)[C@H]2CC(C)C)cn1` [Comparator X, (2R)-2-[(3R,6R)-3-(2,3-dihydro-1H-inden-2-yl)-6-isobutyl-2,5-dioxopiperazin-1-yl]-N,N-dimethyl-2-(6-methylpyridin-3-yl)ethanamide, reference compound], the microsomal CLint (usually the rate of metabolic loss divided by the concentration) at 0.5 uM in data set [1] lay within 9 to 15 mL/min/g; in data set [3], 1 to 8 mL/min/g; in data set [5], 1 to 8 mL/min/g. For the same compound, the figures for the Ki in data set [2] and in data set [4] were 0.0316 to 1.58 nM and 0.631 to 7.94 nM, respectively.
Take `CC[C@H](C)[C@@H]1C(=O)N[C@H](C2Cc3ccccc3C2)C(=O)N1[C@@H](C(=O)NC)c1ccc(C)nc1C` [Example 1, (2R)-2-{(3R,6R)-3-(2,3-Dihydro-1H-inden-2-yl)-6-[(1S)-1-methylpropyl]-2,5-dioxo-1-piperazinyl}-2-(2,6-dimethyl-3-pyridinyl)-N-methylethanamide]: the microsomal CLint at 0.5 uM in data set [1], in data set [3], in data set [6] and in data set [5] was 1 to 8 mL/min/g each time.
Take `CC[C@H](C)[C@@H]1C(=O)N[C@H](C2Cc3ccccc3C2)C(=O)N1[C@@H](C(=O)N(C)C)c1ccc(C)nc1C` [Example 2, (2R)-2-{(3R,6R)-3-(2,3-Dihydro-1H-inden-2-yl)-6-[(1S)-1-methylpropyl]-2,5-dioxo-1-piperazinyl}-2-(2,6-dimethyl-3-pyridinyl)-N,N-dimethylethanamide]: in data set [1], the “Microsomal Cl, Human” value is listed as “+, +”. The microsomal CLint at 0.5 uM in data set [3] and in data set [5] was 1 to 8 mL/min/g in each case. Moreover, the “Microsomal Cl, Cynomolgus monkey” value in data set [6] was “++, +++”.
Regarding `CC[C@H](C)[C@@H]1C(=O)N[C@H](C2Cc3ccccc3C2)C(=O)N1[C@@H](C(=O)N1CCOCC1)c1ccc(C)nc1C` [Example 3, (3R,6R)-3-(2,3-dihydro-1H-inden-2-yl)-1-[(1R)-1-(2,6-dimethyl-3-pyridinyl)-2-(4-morpholinyl)-2-oxoethyl]-6-[(1S)-1-methylpropyl]-2,5-piperazinedione], the microsomal CLint at 0.5 uM in data set [1], in data set [3], in data set [6] and in data set [5] was 1 to 8 mL/min/g throughout.
In the case of `CC[C@H](C)[C@@H]1C(=O)N[C@H](C2Cc3ccccc3C2)C(=O)N1[C@@H](C(=O)N(C)C)c1cnc(C)cc1C` [Example 4, (2R)-2-{(3R,6R)-3-(2,3-Dihydro-1H-inden-2-yl)-6-[(1S)-1-methylpropyl]-2,5-dioxo-1-piperazinyl}-2-(4,6-dimethyl-3-pyridinyl)-N,N-dimethylethanamide], the “Microsomal Cl, Human” value in data set [1] is “++, +”. Besides, the “Microsomal Cl, Rat” value in data set [3] was “+, +”. Also, the “Microsomal Cl, Cynomolgus monkey” value in data set [6] is given as “+++++, +++++”. For the same compound, the “Microsomal Cl, Dog” value in data set [5] was “+, +”.
Take `CC[C@H](C)[C@@H]1C(=O)N[C@H](C2Cc3ccccc3C2)C(=O)N1[C@@H](C(=O)NC)c1cnc(C)cc1C` [Example 5, (2R)-2-{(3R,6R)-3-(2,3-Dihydro-1H-inden-2-yl)-6-[(1S)-1-methylpropyl]-2,5-dioxo-1-piperazinyl}-2-(4,6-dimethyl-3-pyridinyl)-N-methylethanamide]: the intrinsic clearance (microsomal CLint) at 0.5 uM in data set [1] fell in the range of 1 to 8 mL/min/g; in data set [3] it was 1 to 8 mL/min/g; in data set [6], 16 to 20 mL/min/g; in data set [5], 1 to 8 mL/min/g.
As to `CC[C@H](C)[C@@H]1C(=O)N[C@H](C2Cc3ccccc3C2)C(=O)N1[C@@H](C(=O)N1CCOCC1)c1cnc(C)cc1C` [Example 6, (3R,6R)-3-(2,3-dihydro-1H-inden-2-yl)-1-[(1R)-1-(4,6-dimethyl-3-pyridinyl)-2-(4-morpholinyl)-2-oxoethyl]-6-[(1S)-1-methylpropyl]-2,5-piperazinedione], the microsomal CLint at 0.5 uM in data set [1] was in the range of 1 to 8 mL/min/g; in data set [3], 1 to 8 mL/min/g; in data set [6], 16 to 20 mL/min/g; in data set [5] it was 1 to 8 mL/min/g.

Values taken from patent publication US9408851B2, “Compounds” (Glaxo Group Limited, priority 2004, dated 2016).
